Experimental data: ChEMBL document CHEMBL3351756, “Synthesis and evaluation of the antiplasmodial activity of novel indeno[2,1-c]quinoline derivatives” (Bioorg Med Chem, 2014)
Converted amounts (≈) assume the structure as drawn.

Experiments:
[1] = test system: Plasmodium falciparum; experiment: Antimalarial activity against chloroquine-sensitive Plasmodium falciparum 3D7 infected in human type A-positive red blood cells assessed as growth inhibition after 72 hrs by spectrophotometrically; assay type: functional, organism-based; conditions: 3D7, 72 h
[2] = Resistance index, ratio of IC50 for chloroquine-resistant Plasmodium falciparum W2 to IC50 for chloroquine-sensitive Plasmodium falciparum 3D7; assay type: functional
[3] = test system: Plasmodium falciparum; experiment: Antimalarial activity against chloroquine-resistant Plasmodium falciparum W2 infected in human type A-positive red blood cells assessed as growth inhibition after 72 hrs by spectrophotometrically; assay type: functional, organism-based; conditions: W2, 72 h
[4] = test system: Plasmodium falciparum; experiment: Antimalarial activity against Plasmodium falciparum K1; assay type: functional, organism-based
[5] = Selectivity index, ratio of CC50 for HMEC1 to IC50 for chloroquine-sensitive Plasmodium falciparum D10; assay type: functional
[6] = Selectivity index, ratio of CC50 for HMEC1 to IC50 for chloroquine-resistant Plasmodium falciparum W2; assay type: functional
[7] = test system: Plasmodium falciparum; experiment: Antimalarial activity against chloroquine-sensitive Plasmodium falciparum D10 infected in human type A-positive red blood cells assessed as growth inhibition after 72 hrs by spectrophotometrically; assay type: functional; conditions: D10, 72 h
[8] = Resistance index, ratio of IC50 for chloroquine-resistant Plasmodium falciparum W2 to IC50 for chloroquine-sensitive Plasmodium falciparum D10; assay type: functional
[9] = Cytotoxicity against HMEC1 assessed as cell growth inhibition after 72 hrs by MTT assay; design: species or system HMEC-1; conditions: human, HMEC1 cells
[10] = test system: Mycobacterium tuberculosis; experiment: Antimycobacterial activity against Mycobacterium tuberculosis; assay type: functional
[11] = Selectivity index, ratio of CC50 for HMEC1 to IC50 for chloroquine-sensitive Plasmodium falciparum 3D7; assay type: functional
[12] = test system: Plasmodium falciparum; experiment: Antimalarial activity against Plasmodium falciparum Dd2; assay type: functional
[13] = target: Heme; experiment: Binding affinity to heme assessed as inhibition of beta-hematin formation measured as compound IC50 to haemin molar ratio by BHIA assay

Row | SMILES | IC50 [1] [nM] | Ratio IC50 [2] | IC50 [3] [nM] | Ratio CC50/IC50 [5] | Ratio CC50/IC50 [6] | IC50 [7] [nM] | Ratio IC50 [8] | CC50 at 72 h [9] [nM] | further results
1 | O=C1c2ccccc2-c2c1c(NCCN1CCCCC1)nc1ccc(Cl)cc21 | 1710 | 0.4 | 626 |  |  |  |  |  | 
2 | Clc1ccc(/C(=C\[C@@H]2CCCN3CCCC[C@H]23)c2ccccc2)cc1Cl |  |  |  |  |  |  |  |  | IC50 [4]: 400 nM
3 | COc1nc2ccc(Cl)cc2c2c1/C(=N/NC(=N)N)c1ccccc1-2 |  |  | 432 | 4.8 | 4 | 360 | 1.2 | 1720 | 
4 | c1ccc2c(c1)-c1ccccc1C2C[C@@H]1CCCN2CCCC[C@H]12 |  |  |  |  |  |  |  |  | MIC [10]: 20 µM (≈ 6.35 µg/mL)
5 | O/N=C1\c2ccccc2-c2c1c(-n1ccnc1)nc1ccc(Cl)cc21 |  |  | > 5000 |  |  | > 5000 |  |  | 
6 | CCC(=O)O/N=C1\c2ccccc2-c2c1c(N1CCN(c3ccccn3)CC1)nc1ccc(Cl)cc21 |  |  | 4160 | > 8.7 | > 8.4 | 4050 | 1 | > 35000 | 
7 | COc1nc2ccc(Cl)cc2c2c1/C(=N/N1CCN(C)CC1)c1ccccc1-2 |  |  | 3160 | 1.2 | 1.7 | 4580 | 0.7 | 5280 | 
8 | O/N=C1\c2ccccc2-c2c1c(NCCN1CCOCC1)nc1cc(Cl)ccc21 | 5390 | 0.5 | 2730 |  |  | 2840 | 1 |  | 
9 | CN1CCN(CCNc2nc3ccc(Cl)cc3c3c2C(=O)c2ccccc2-3)CC1 | 1030 | 0.5 | 568 | 2.8 | 3.4 | 703 | 0.8 | 1940 | Ratio CC50/IC50 [11]: 1.9
10 | C(=C(c1ccccc1)c1ccccc1)[C@@H]1CCCN2CCCC[C@H]12 |  |  |  |  |  |  |  |  | MIC [10]: 3.9 µM (≈ 1.24 µg/mL)
11 | CCN(CC)CCCC(C)Nc1ccnc2cc(Cl)ccc12 (centres undefined) [CHLOROQUINE] |  |  |  |  |  |  |  | > 38000 | 
12 | O=C1c2ccccc2-c2c1c(NCCN1CCCCC1)nc1cc(Cl)ccc21 | 2340 | 0.5 | 1170 |  |  |  |  |  | 
13 | CN1CCN(CCNc2nc3ccc(Cl)cc3c3c2/C(=N/O)c2ccccc2-3)CC1 | 818 | 0.8 | 699 | 3.9 | 3.7 | 667 | 1 | 2580 | Ratio CC50/IC50 [11]: 3.2
14 | O=C(c1ccc2[nH]ccc2c1)N1CCN(C2c3ccccc3-c3ccccc32)CC1 | 16900 |  |  |  |  |  |  |  | IC50 [12]: 21600 nM
15 | CN1CCN(CCNc2nc3cc(Cl)ccc3c3c2/C(=N/O)c2ccccc2-3)CC1 |  |  | 1060 | 4.4 | 2.8 | 676 | 1.6 | 2940 | 
16 | O/N=C1\c2ccccc2-c2c1c(NCCN1CCCCC1)nc1ccc(Cl)cc21 | 843 | 0.3 | 255 | 3.7 | 12 | 850 | 0.3 | 3120 | Ratio CC50/IC50 [11]: 3.7; IC50 [13]: > 4 molar ratio
17 | CN1CCN(CCNc2nc3cc(Cl)ccc3c3c2C(=O)c2ccccc2-3)CC1 |  |  | 534 | 6.7 | 5.9 | 468 | 1.1 | 3120 | 
18 | O/N=C1\c2ccccc2-c2c1c(N1CCN(c3ccccn3)CC1)nc1ccc(Cl)cc21 |  |  | 6810 | > 5.8 | > 5.6 | 6610 | 1 | > 38000 | 
19 | O/N=C1\c2ccccc2-c2c1c(NCCN1CCCCC1)nc1cc(Cl)ccc21 | 530 | 0.5 | 244 |  | 9.6 |  |  | 2340 | Ratio CC50/IC50 [11]: 4.4
20 | CN1CCN(c2nc3ccc(Cl)cc3c3c2C(=O)c2ccccc2-3)CC1 |  |  | 1190 | 2.5 | 3.4 | 1640 | 0.7 | 4030 | 
21 | O=C1c2ccccc2-c2c1c(N1CCN(c3ccccn3)CC1)nc1ccc(Cl)cc21 |  |  | 6940 |  |  | 6080 | 1.1 |  | 
22 | Clc1cccc(/C(=C\[C@@H]2CCCN3CCCC[C@H]23)c2ccccc2)c1 |  |  |  |  |  |  |  |  | MIC [10]: 0.85 µM (≈ 0.299 µg/mL)
23 | Clc1ccc(C(=C[C@@H]2CCCN3CCCC[C@H]23)c2ccc(Cl)cc2)cc1 |  |  |  |  |  |  |  |  | MIC [10]: 1.6 µM (≈ 0.618 µg/mL)
24 | O=C1c2ccccc2-c2c1c(NCCN1CCOCC1)nc1cc(Cl)ccc21 | 6780 | 0.4 | 2550 |  |  | 3760 | 0.7 |  | 
25 | C(=C1c2ccccc2-c2ccccc21)[C@@H]1CCCN2CCCC[C@H]12 |  |  |  |  |  |  |  |  | MIC [10]: 0.49 µM (≈ 0.155 µg/mL)
26 | CCCCN(CCCC)CC(O)c1cc(Cl)cc2c1-c1ccc(Cl)cc1/C2=C/c1ccc(Cl)cc1 (centres undefined) [LUMEFANTRINE] | 12 |  | 12 |  |  | 12 |  |  | 
